Data from the supplement of paper PMC10307832.

Key:
Assay in all cases: relative viability (nuclei count vs DMSO), 5 days (fraction); higher = more cells survive
[1] = compound: CC(C)N(CCCNC(=O)Nc1ccc(C(C)(C)C)cc1)C[C@H]1O[C@@H](n2ccc3c(N)ncnc32)[C@H](O)[C@@H]1O + C[C@]1(O)C[C@@H](c2nc(-c3ccc4ccc(-c5ccccc5)nc4c3)c3c(N)nccn32)C1 [Linsitinib] (partner 1 µM)
Method in brief: (§1)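 Dosing by pin tool came one day after lung cancer cell lines were seeded in 1536-well plates, using either one drug or a fixed anchor-drug dose plus five library-drug doses (not always all listed) in √10 steps. After 5 days, nuclei were counted on 4× images. Relative viability is treated-well nuclei count divided by vehicle-well nuclei count, and values are medians of duplicate plates.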

[2] = compound: CC(C)=CC[C@@H](O)C1=CC(=O)c2c(O)ccc(O)c2C1=O [Shikonin] + CCNC(=O)c1noc(-c2cc(C(C)C)c(O)cc2O)c1-c1ccc(CN2CCOCC2)cc1 [Luminespib] (partner 0.01 µM)
Method in brief: as §1

[3] = compound: CC(C)N(CCCNC(=O)Nc1ccc(C(C)(C)C)cc1)C[C@H]1O[C@@H](n2ccc3c(N)ncnc32)[C@H](O)[C@@H]1O + Nc1ncn([C@H]2C[C@H](O)[C@@H](CO)O2)c(=O)n1 [Decitabine] (partner 2 µM)
Method in brief: as §1

[4] = compound: CC(C)=CC[C@@H](O)C1=CC(=O)c2c(O)ccc(O)c2C1=O [Shikonin] + O=C(c1cc(Cc2n[nH]c(=O)c3ccccc23)ccc1F)N1CCN(C(=O)C2CC2)CC1 [Olaparib] (partner 8 µM)
Method in brief: as §1

| Cell Line | relative viability ([1]; first compound 0.08 µM) | relative viability ([1]; first compound 0.253 µM) | relative viability ([1]; first compound 0.8 µM) | relative viability ([1]; first compound 2.53 µM) | relative viability ([1]; first compound 8 µM) | relative viability ([2]; first compound 0.01 µM) | relative viability ([2]; first compound 0.1 µM) | relative viability ([2]; first compound 0.3162 µM) | relative viability ([2]; first compound 1 µM) | relative viability ([3]; first compound 0.08 µM) | relative viability ([3]; first compound 0.253 µM) | relative viability ([3]; first compound 2.53 µM) | relative viability ([3]; first compound 8 µM) | relative viability ([4]; first compound 0.01 µM) | relative viability ([4]; first compound 0.1 µM) | relative viability ([4]; first compound 0.3162 µM) | relative viability ([4]; first compound 1 µM) | relative viability ([3]; first compound 0.8 µM) |
| --- | --- | --- | --- | --- | --- | --- | --- | --- | --- | --- | --- | --- | --- | --- | --- | --- | --- | --- |
| 201T | 1.01 | 1.06 | 0.981 | 1.01 | 1.08 | 0.971 | 1.13 | 1.03 | 1.07 | 0.841 | 0.889 | 0.876 | 0.844 | 0.843 | 0.893 | 0.869 | 0.951 | – |
| A549 | 0.561 | 0.554 | 0.525 | 0.679 | 0.635 | – | – | – | – | 0.278 | 0.292 | 0.215 | 0.189 | 0.351 | 0.454 | 0.305 | 0.302 | 0.291 |
| A-427 | 1.18 | 1.12 | 1.1 | 1.12 | 1.14 | 0.743 | 1.21 | 0.814 | 0.88 | 0.556 | 0.535 | 0.541 | 0.568 | 0.802 | 0.872 | 0.708 | 0.795 | 0.568 |
| ABC-1 | 0.978 | 0.95 | – | 0.709 | 0.905 | 0.713 | 0.753 | 0.4 | 0.17 | 1.03 | 1.23 | 1.15 | 1.32 | 0.78 | 0.894 | 0.948 | 0.637 | – |
| BEN | 0.819 | 0.849 | 0.924 | 1.01 | 0.865 | 0.505 | 0.469 | 0.474 | 0.849 | 0.602 | 0.596 | 0.717 | 0.678 | 1.08 | 1.03 | 1.02 | 1.01 | 0.739 |
| CAL-12T | 0.788 | 0.772 | 0.809 | 0.89 | 0.739 | 0.473 | 0.415 | 0.257 | 0.42 | – | – | – | – | 0.767 | 0.849 | 0.789 | 0.639 | – |
| COR-L23 | 0.837 | 0.934 | 0.916 | 1.04 | 0.897 | 0.848 | 0.675 | 0.767 | 0.357 | 0.46 | 0.33 | 0.48 | 0.456 | 0.401 | 0.306 | 0.307 | 0.24 | 0.467 |
| COR-L 105 | 0.805 | 1.18 | 1.07 | 0.727 | 0.896 | 0.787 | 0.758 | 0.83 | 0.74 | 0.631 | 0.67 | 0.638 | 0.694 | 0.672 | 0.796 | 0.558 | 0.606 | 0.736 |
| Calu-6 | 1 | 0.933 | 0.871 | 0.988 | 0.858 | – | – | – | – | – | – | – | – | 0.6 | 0.695 | 0.556 | 0.356 | – |
| ChaGo-K-1 | – | – | – | – | – | 0.635 | 0.82 | 0.55 | 0.415 | 0.468 | 0.545 | 0.522 | 0.505 | 0.425 | 0.438 | 0.387 | 0.462 | 0.494 |
| EBC-1 | 0.656 | 0.74 | 0.598 | 0.885 | 0.727 | – | – | – | – | – | – | – | – | 0.764 | 0.698 | 0.758 | 0.602 | – |
| EKVX | 0.941 | 0.972 | 0.914 | 0.943 | 0.927 | 0.907 | 0.892 | 0.915 | 0.922 | 0.342 | 0.339 | 0.36 | 0.351 | 0.922 | 0.907 | 0.889 | 0.798 | 0.327 |
| EMC-BAC-2 | 0.764 | 0.835 | 0.794 | 0.806 | 0.804 | 1.25 | 1.44 | 1.3 | 1.24 | 0.939 | 1.02 | 1.09 | 0.96 | 0.484 | 0.562 | 0.486 | 0.427 | 1.07 |
| EPLC-272H | 1.12 | 1.09 | 1.05 | 1.03 | 1.05 | 0.167 | 0.303 | 0.209 | 0.261 | 0.366 | 0.381 | 0.413 | 0.39 | 0.553 | 0.63 | 0.57 | 0.586 | 0.368 |
| H3255 | 0.804 | 0.958 | 0.947 | 0.994 | 0.84 | 0.869 | 0.973 | 1.05 | 0.865 | 0.613 | 0.645 | 0.626 | 0.511 | 0.552 | 0.542 | 0.597 | 0.509 | 0.491 |
| HARA | 0.885 | 0.845 | 0.868 | 0.794 | 0.906 | 0.864 | 0.841 | 0.775 | 0.936 | 0.556 | 0.545 | 0.457 | 0.495 | 0.557 | 0.7 | 0.492 | 0.574 | 0.62 |
| HCC-15 | 0.84 | 0.908 | 0.909 | 0.9 | 0.859 | 0.358 | 0.888 | 0.242 | 0.402 | 0.655 | 0.592 | 0.646 | 0.544 | 0.796 | 0.735 | 0.722 | 0.669 | 0.65 |
| HCC-44 | 0.647 | 0.68 | 0.748 | 0.666 | 0.729 | 0.814 | 1.14 | 1.28 | 1.23 | 0.979 | 1.01 | 0.966 | 0.915 | 0.963 | 1.01 | 1.07 | 0.993 | 0.714 |
| HCC-78 | 0.576 | 0.437 | 0.423 | 0.51 | 0.456 | – | – | – | – | 0.783 | 0.667 | 0.707 | 0.777 | 0.911 | 0.753 | 0.964 | 0.755 | 0.667 |
| HCC-366 | 0.597 | 0.581 | 0.563 | 0.547 | 0.513 | – | – | – | – | 0.359 | 0.335 | 0.294 | 0.352 | 0.423 | 0.428 | 0.33 | 0.404 | 0.317 |
